Earlier results as cited in PMC9255981 (The Oncologist, 2022).

Test system: patients
Conditions: phase I study ref [1],[2]

grade of blood CPK increase events (all events): 1
Myalgia, regardless of causality: 10 % of patients
blood CPK increase: 3.9%
SMILES: C=CC(=O)N1CCN(c2nc(=O)n(-c3c(C)ccnc3C(C)C)c3nc(-c4c(O)cccc4F)c(F)cc23)[C@@H](C)C1 [sotorasib]
most frequent treatment-related AEs (>10%): diarrhea, AST increased, and ALT increased
